Results from publication PMC8058344, “ARIH1 signaling promotes anti-tumor immunity by targeting PD-L1 for proteasomal degradation” (Nature Communications, 2021).
“And” between values parts separate entries of the source, which are not always exact repeats. Identical values can stand only once. Residues, ends and D or L forms follow the SMILES beside them. *: point of attachment. Cbz = O=C(OCc1ccccc1)*

Legend:
[1] = tested on: PD-L1 in U937 cells; assay: PD-L1 levels in U937 cells by western blotting and flow cytometry; assay type: cell-based, human
Protocol: (§1) Fig. 1 EGFR inhibitors were screened to reduce membrane PD-L1 levels. a High-throughput screening of 2125 FDA-approved drugs or drug candidates. U937 cells were incubated with IFNγ (100 ng/mL) for 48 h, treated with the drugs at 10 μM for 12 h. Ruxolitinib (Rux) was used as a positive control. The hit compounds that induced the decrease of PD-L1 levels are shown in blue. The depth of blue represents decreased level of PD-L1. The heatmap represents the targeted pathways obtained from the high-throughput screening, based upon decreased membrane PD-L1 level detected by flow cytometry. b Immunoblotting of PD-L1 in U937 cells treated with ES-072 (ES) or AZD9291 (AZD) at indicated concentrations for 12 h. ES and AZD are EGFR inhibitors. c, d Median fluorescence intensity (MFI) (c) and relative quantification (d) of PD-L1 in U937 cells treated with 10 μM ES-072 or 10 μM AZD9291 for 12 h. Data represent means ± SEM, n = 18, 6 independent repeats, ****P < 0.0001. e–g Immunoblotting (e, f) and flow cytometry (g) analysis of PD-L1 levels in U937 cells treated with 10 μM ES-072 or 10 μM AZD9291 for the indicated times. h, i Immunoblottings (h) of PD-L1 and β-TrCP, relative quantification (i) of PD-L1 MFI in H1975 cells transfected with non-targeting siRNA (si-CTRL) or β-TrCP siRNAs (si-β-TrCP) and treated with or without 10 μM ES-072/AZD9291 for 12 h. Data represent means ± SEM, n = 9, 3 independent repeats, NS: no significant; ****P < 0.0001. j–l Immunoblotting (j) and flow cytometry analysis (k) with relative quantification (l) of PD-L1 in H1975 cells treated with 10 μM ES-072 or AZD9291, and/or 5 μM LY2090314 (LY) for 12 h. LY is a GSK3 inhibitor. […]
For western blot analysis, cells were collected and washed with PBS, then lysed in radioimmunoprecipitation assay (RIPA) buffer (1% Triton X-100, 100 mM Tris-HCl pH 8.8, 100 mM NaCl, 0.5 mM EDTA). […] The supernatant was collected and the protein concentration was measured by bicinchoninic acid reaction. […] Signals were detected using chemiluminescence reagents (#4AW001-500, 4A649 Biotech, Co.). […]

[2] = biological target: GSK3α (Homo sapiens, UniProt P49840); assay: In vitro kinase specificity profiling for GSK3α; assay type: biochemical
Sequence of GSK3α (P49840 whole entry): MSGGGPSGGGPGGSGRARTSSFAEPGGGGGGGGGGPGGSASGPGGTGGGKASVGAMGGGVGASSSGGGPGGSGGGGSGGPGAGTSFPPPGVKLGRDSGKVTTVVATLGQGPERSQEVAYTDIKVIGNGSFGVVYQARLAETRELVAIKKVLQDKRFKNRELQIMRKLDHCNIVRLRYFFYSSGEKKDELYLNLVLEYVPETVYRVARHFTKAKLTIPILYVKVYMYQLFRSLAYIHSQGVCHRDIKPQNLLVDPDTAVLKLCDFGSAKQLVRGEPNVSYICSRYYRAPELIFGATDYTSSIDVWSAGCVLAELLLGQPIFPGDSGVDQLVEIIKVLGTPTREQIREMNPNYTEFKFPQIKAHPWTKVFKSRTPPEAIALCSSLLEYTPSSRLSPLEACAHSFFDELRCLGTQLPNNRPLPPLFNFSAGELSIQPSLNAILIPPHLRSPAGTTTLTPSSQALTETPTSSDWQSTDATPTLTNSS

[3] = tested on: PD-L1 in H1975 cells; assay: PD-L1 levels in H1975 cells by immunoblotting and flow cytometry; assay type: cell-based, human
Protocol: as §1, with “h.” for “h. LY is a GSK3 inhibitor.”
Fig. 5 GSK3α-mediated phosphorylation of PD-L1 promotes PD-L1-ARIH1 interaction and ARIH1-induced degradation. a Co-IP analysis for the interaction of K48-ubiquitin, ARIH1 (HA), and PD-L1 in HEK293T cells transfected with HA-ARIH1 and Flag-PD-L1 (WT, S279A, S283A, or 2SA), treated with MG132 (10 μM) for 6 h; HA-tagged empty vector (HA-EV) was transfected as a negative control. b Co-IP analysis for the interaction of ARIH1 and PD-L1 in HEK293T cells transfected with HA-ARIH1 and Flag-PD-L1 (WT or 2SA), treated with 10 μM ES-072 for 24 h, Flag-tagged empty vector (Flag-EV) was transfected as a negative control. c HEK293T cells were transfected with Flag-PD-L1. Co-IP analysis for the interaction of ubiquitin and PD-L1 in HEK293T cells transfected with ARIH1-siRNAs or HA-GSK3α and treated with MG132 (10 μM) for 6 h; non-targeting siRNA (si-CTRL) was transfected as a negative control. d Immunoblots of PD-L1 and ARIH1 (HA) in H1975 cells transfected with HA-ARIH1, treated with or without 5 μM LY for 6 h. e, f MFI (e) and relative quantification (f) of PD-L1 in HA-ARIH1-overexpressed H1975 cells, treated with or without 5 μM LY for 6 h. […]

## C=CC(=O)Nc1cc(Nc2nccc(-c3cn(C)c4ccccc34)n2)c(OC)cc1N(C)CCN(C)C [AZD9291, Osimertinib]
[1]; western blotting and flow cytometry, 10 μM, 12 h
  IFNγ-induced membranal PD-L1 levels: dramatically reduced

## O=C1NC(=O)C(c2cnc3ccccn23)=C1c1cn2c3c(cc(F)cc13)CN(C(=O)N1CCCCC1)CC2 [LY2090314]
[2]; single independent tests
  IC50: 0.98 nM and 0.81 nM and 0.84 nM
[2]; value with spread given in main text
  IC50: 0.87 ± 0.09 nM
[3]; H1975 cells transfected with HA-ARIH1, 5 μM LY for 6 h
  ARIH1-overexpression-induced degradation of PD-L1: rescued
[3]; H1975 cells, 5 μM LY2090314 with 10 μM ES-072 or AZD9291, 12 h
  reduction of PD-L1 levels induced following EGFR inhibition: did block this reduction

## CC(C)C[C@@H](C=O)NC(=O)[C@H](CC(C)C)NC(=O)[C@H](CC(C)C)NC(=O)OCc1ccccc1 [MG132] (Cbz-Leu-Leu-Leu-aldehyde)
[3]; H1975 cells, 10 μM ES-072 and 10 μM MG132 for 6 h
  decrease in the PD-L1 levels induced by ES-072: rescued

## N#CC[C@H](C1CCCC1)n1cc(-c2ncnc3[nH]ccc23)cn1 [Ruxolitinib]
[1]; 100 ng/mL IFNγ 48 h, 10 μM Ruxolitinib 12 h
  IFNγ-induced PD-L1 levels: blocked
